In patent US20090111778A1, “2-Keto-Oxazoles as Modulators of Fatty Acid Amide Hydrolase” (priority 2005, published 2009):
Where two headings read alike, the source gives them in different places.

Legend:
[1] = target: T1, human FAAH (Homo sapiens, UniProt O00519); assay: Assay Method 1: FAAH assay, hydrolysis of 3H-anandamide by homogenate of SK-N-MC cells transfected with human FAAH; format: biochemical
T1 construct: expressed in transfected cells
T1 sequence (O00519 1-579): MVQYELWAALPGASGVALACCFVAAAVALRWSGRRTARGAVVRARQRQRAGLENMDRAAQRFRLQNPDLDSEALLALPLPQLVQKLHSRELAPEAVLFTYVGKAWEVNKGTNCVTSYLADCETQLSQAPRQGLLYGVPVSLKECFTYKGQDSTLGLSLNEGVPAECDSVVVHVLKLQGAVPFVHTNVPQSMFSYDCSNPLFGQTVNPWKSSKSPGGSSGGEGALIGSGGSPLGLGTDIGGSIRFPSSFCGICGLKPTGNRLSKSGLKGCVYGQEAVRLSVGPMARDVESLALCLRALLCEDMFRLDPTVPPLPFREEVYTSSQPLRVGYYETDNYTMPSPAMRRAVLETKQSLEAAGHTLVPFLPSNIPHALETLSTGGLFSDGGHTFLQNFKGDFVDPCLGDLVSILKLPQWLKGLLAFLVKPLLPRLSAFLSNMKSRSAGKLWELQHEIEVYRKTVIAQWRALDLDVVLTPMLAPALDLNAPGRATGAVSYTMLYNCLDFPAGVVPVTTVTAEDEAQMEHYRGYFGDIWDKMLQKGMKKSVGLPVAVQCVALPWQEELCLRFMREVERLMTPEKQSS
In short: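 Homogenate of SK-N-MC cells stably expressing human FAAH (G418-selected clones) incubated with compound and 80 nM [1-3H-ethanolamine]anandamide for 1 h at rt. Released 3H-ethanolamine separated from substrate by activated-charcoal filtration, then counted by scintillation.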

[2] = target: T2, rat FAAH (Rattus norvegicus, UniProt P97612); assay: Assay Method 2: FAAH assay, hydrolysis of 3H-anandamide by homogenate of SK-N-MC cells transfected with rat FAAH; format: biochemical; conditions: T84 or transfected SK-N-MC cell homogenate, 3H-AEA tracer 80 nM, rt 1 h, pH 9
T2 construct: expressed in transfected cells
T2 sequence (P97612 1-579): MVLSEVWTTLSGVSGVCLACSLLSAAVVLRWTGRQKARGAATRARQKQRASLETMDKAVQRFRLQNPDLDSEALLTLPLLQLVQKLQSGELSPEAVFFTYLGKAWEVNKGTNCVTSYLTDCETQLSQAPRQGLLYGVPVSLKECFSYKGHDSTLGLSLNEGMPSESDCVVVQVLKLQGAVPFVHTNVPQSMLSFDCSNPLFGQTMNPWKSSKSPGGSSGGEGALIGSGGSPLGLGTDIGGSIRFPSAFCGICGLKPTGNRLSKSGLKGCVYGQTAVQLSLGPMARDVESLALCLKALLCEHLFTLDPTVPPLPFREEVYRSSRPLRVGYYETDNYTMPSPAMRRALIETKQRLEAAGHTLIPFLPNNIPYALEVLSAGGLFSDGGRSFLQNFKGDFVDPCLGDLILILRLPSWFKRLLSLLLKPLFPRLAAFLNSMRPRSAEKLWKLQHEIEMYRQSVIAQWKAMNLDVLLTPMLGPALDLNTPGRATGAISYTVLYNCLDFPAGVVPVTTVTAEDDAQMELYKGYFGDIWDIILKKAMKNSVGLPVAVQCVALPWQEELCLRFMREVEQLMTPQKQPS
In short: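 SK-N-MC cells stably transfected with rat FAAH cDNA (electroporation, G418 selection); homogenate hydrolyses 3H-anandamide. Reaction 1 h at rt, then filtered through activated charcoal; unbound labelled ethanolamine in filtrate counted by scintillation.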

[3] = human FAAH, T84 or transfected SK-N-MC cell homogenate, 3H-AEA tracer 80 nM, rt 1 h, pH 9, read-out: Assay 1 IC50

SMILES	IC50 [1] [nM]	IC50 [2] [nM]	IC50 [1, 3] [nM]
CC(C)S(=O)(=O)N1CCC(CCCC(=O)c2ncco2)CC1 [Example 56, 1-Oxazol-2-yl-4-[1-(propane-2-sulfonyl)-piperidin-4-yl]-butan-1-one]	142	3350	
CCCS(=O)(=O)N1CCC(CCCC(=O)c2ncco2)CC1 [Example 57, 1-Oxazol-2-yl-4-[1-(propane-1-sulfonyl)-piperidin-4-yl]-butan-1-one]		1600	120
CCCCS(=O)(=O)N1CCC(CCCC(=O)c2ncco2)CC1 [Example 58, 4-[1-(Butane-1-sulfonyl)-piperidin-4-yl]-1-oxazol-2-yl-butan-1-one]		720	60
O=C(CCCC1CCN(S(=O)(=O)c2ccccc2)CC1)c1ncco1 [Example 59, 4-(1-Benzenesulfonyl-piperidin-4-yl)-1-oxazol-2-yl-butan-1-one]		165	705
O=C(CCCC1CCN(S(=O)(=O)c2ccc(Cl)cc2)CC1)c1ncco1 [Example 60, 4-[1-(4-Chloro-benzenesulfonyl)-piperidin-4-yl]-1-oxazol-2-yl-butan-1-one]		34	4
COc1ccc(S(=O)(=O)N2CCC(CCCC(=O)c3ncco3)CC2)cc1 [Example 61, 4-[1-(4-Methoxy-benzenesulfonyl)-piperidin-4-yl]-1-oxazol-2-yl-butan-1-one]		37	2
O=C(CCCC1CCN(S(=O)(=O)c2ccc(Cl)c(Cl)c2)CC1)c1ncco1 [Example 62, 4-[1-(3,4-Dichloro-benzenesulfonyl)-piperidin-4-yl]-1-oxazol-2-yl-butan-1-one]		110	14
O=C(CCCC1CCN(C(=O)OCc2ccccc2)CC1)c1ncco1 [Example 63, 4-(4-Oxazol-2-yl-4-oxo-butyl)-piperidine-1-carboxylic acid benzyl ester]		2	3
CCOC(=O)N1CCC(CCCC(=O)c2ncco2)CC1 [Example 64, 4-(4-Oxazol-2-yl-4-oxo-butyl)-piperidine-1-carboxylic acid ethyl ester]		14	6
COCCOC(=O)N1CCC(CCCC(=O)c2ncco2)CC1 [Example 65, 4-(4-Oxazol-2-yl-4-oxo-butyl)-piperidine-1-carboxylic acid 2-methoxy-ethyl ester]		240	69
O=C(CCCC1CCN(C(=O)OCCOCc2ccccc2)CC1)c1ncco1 [Example 66, 4-(4-Oxazol-2-yl-4-oxo-butyl)-piperidine-1-carboxylic acid 2-benzyloxy-ethyl ester]		2	0.7
CC(C)(C)COC(=O)N1CCC(CCCC(=O)c2ncco2)CC1 [Example 67, 4-(4-Oxazol-2-yl-4-oxo-butyl)-piperidine-1-carboxylic acid 2,2-dimethyl-propyl ester]		118	50
CC(C)COC(=O)N1CCC(CCCC(=O)c2ncco2)CC1 [Example 68, 4-(4-Oxazol-2-yl-4-oxo-butyl)-piperidine-1-carboxylic acid isobutyl ester]		55	10
CC(C)OC(=O)N1CCC(CCCC(=O)c2ncco2)CC1 [Example 69, 4-(4-Oxazol-2-yl-4-oxo-butyl)-piperidine-1-carboxylic acid isopropyl ester]		9	4
CCCOC(=O)N1CCC(CCCC(=O)c2ncco2)CC1 [Example 70, 4-(4-Oxazol-2-yl-4-oxo-butyl)-piperidine-1-carboxylic acid propyl ester]		19	7
CCc1ccc(CN2CCC(CCCC(=O)c3ncco3)CC2)cc1 [Example 71, 4-[1-(4-Ethyl-benzyl)-piperidin-4-yl]-1-oxazol-2-yl-butan-1-one]		49	7
O=C(CCCC1CCN(Cc2cccc(-c3ccccc3)c2)CC1)c1ncco1 [Example 72, 4-(1-Biphenyl-3-ylmethyl-piperidin-4-yl)-1-oxazol-2-yl-butan-1-one]		2	0.9

SMILES	IC50 [1] [nM]	IC50 [2] [nM]	IC50 [1, 3] [nM]
O=C(CCCC1CCN(Cc2ccc(-c3ccccc3)cc2)CC1)c1ncco1 [Example 73, 4-(1-Biphenyl-4-ylmethyl-piperidin-4-yl)-1-oxazol-2-yl-butan-1-one]		45	24
COc1ccc(CN2CCC(CCCC(=O)c3ncco3)CC2)cn1 [Example 74, 4-[1-(6-Methoxy-pyridin-3-ylmethyl)-piperidin-4-yl]-1-oxazol-2-yl-butan-1-one]		5000	1300
O=C(CCCC1CCN(Cc2ccc(Cl)nc2)CC1)c1ncco1 [Example 75, 4-[1-(6-Chloro-pyridin-3-ylmethyl)-piperidin-4-yl]-1-oxazol-2-yl-butan-1-one]		1000	600
O=C(CCCC1CCN(Cc2ccc(Br)nc2)CC1)c1ncco1 [Example 76, 4-[1-(6-Bromo-pyridin-3-ylmethyl)-piperidin-4-yl]-1-oxazol-2-yl-butan-1-one]		650	400
O=C(CCCC1CCN(Cc2cccc(Br)n2)CC1)c1ncco1 [Example 77, 4-[1-(6-Bromo-pyridin-2-ylmethyl)-piperidin-4-yl]-1-oxazol-2-yl-butan-1-one]		1000	313
O=C(CCCC1CCN(Cc2cncc(Br)c2)CC1)c1ncco1 [Example 78, 4-[1-(5-Bromo-pyridin-3-ylmethyl)-piperidin-4-yl]-1-oxazol-2-yl-butan-1-one]		500	98
Cc1ccccc1CN1CCC(CCCC(=O)c2ncco2)CC1 [Example 80, 4-[1-(2-Methyl-benzyl)-piperidin-4-yl]-1-oxazol-2-yl-butan-1-one]		2000	1200
O=C(CCCC1CCN(Cc2cccc(F)c2F)CC1)c1ncco1 [Example 81, 4-[1-(2,3-Difluoro-benzyl)-piperidin-4-yl]-1-oxazol-2-yl-butan-1-one]		1000	200
CC(C)Cc1ccc(CN2CCC(CCCC(=O)c3ncco3)CC2)cc1 [Example 82, 4-[1-(4-Isobutyl-benzyl)-piperidin-4-yl]-1-oxazol-2-yl-butan-1-one]		49	23
CC(C)(C)c1ccc(CN2CCC(CCCC(=O)c3ncco3)CC2)cc1 [Example 83, 4-[1-(4-tert-Butyl-benzyl)-piperidin-4-yl]-1-oxazol-2-yl-butan-1-one]		84	7
O=C(CCCC1CCN(Cc2ccccc2Cl)CC1)c1ncco1 [Example 84, 4-[1-(2-Chloro-benzyl)-piperidin-4-yl]-1-oxazol-2-yl-butan-1-one]		563	260
O=C(CCCC1CCN(Cc2ccccc2Br)CC1)c1ncco1 [Example 85, 4-[1-(2-Bromo-benzyl)-piperidin-4-yl]-1-oxazol-2-yl-butan-1-one]		240	315
CN(C)c1ccc(CN2CCC(CCCC(=O)c3ncco3)CC2)cc1 [Example 88, 4-[1-(4-Dimethylamino-benzyl)-piperidin-4-yl]-1-oxazol-2-yl-butan-1-one]		3000	325
CCN(CC)c1ccc(CN2CCC(CCCC(=O)c3ncco3)CC2)cc1 [Example 89, 4-[1-(4-Diethylamino-benzyl)-piperidin-4-yl]-1-oxazol-2-yl-butan-1-one]		700	130
O=C(CCCC1CCN(Cc2cccc(Br)c2)CC1)c1ncco1 [Example 90, 4-[1-(3-Bromo-benzyl)-piperidin-4-yl]-1-oxazol-2-yl-butan-1-one]		118	10
O=C(CCCC1CCN(Cc2ccc(Br)cc2)CC1)c1ncco1 [Example 91, 4-[1-(4-Bromo-benzyl)-piperidin-4-yl]-1-oxazol-2-yl-butan-1-one]		270	45
